Assay results: patent publication US20150157588A1, “Pharmaceutical Composition Comprising Amino-Phenyl-Acetic Acid Octadec-(Z)-9-enyl Ester and Use Thereof for Treating Tumors” (Yeda Research and Development Co., Ltd., priority 2012, published 2015)

Test system: anti-CD3-activated T cells
Test: Microarray gene expression, T cells activated by anti-CD3 antibody
Format: cell-based, human
Conditions: anti-CD3-activated T cells; for Fold change COL6A3: 201438_at; for Fold change CTSL: 202087_s_at; for Fold change IGF2 /// INS-IGF2: 202409_at; for Fold change IGFBP2: 202718_at; for Fold change SERPINA1: 202833_s_at; for Fold change S100A8: 202917_s_at; for Fold change MET: 203510_at; for Fold change MMP9: 203936_s_at; for Fold change LOC645619 /// LOC731007: 204347_at; for Fold change AK3L1: 204348_s_at; for Fold change SLC7A7: 204588_s_at; for Fold change SERPINB2: 204614_at; for Fold change TTK: 204822_at; for Fold change GNG4: 205184_at; for Fold change ADAMDEC1: 206134_at; for Fold change PLA2G7: 206214_at; for Fold change HCK: 208018_s_at
Protocol: CD3 positive T cells were extracted from a healthy donor according to a standard protocol, and seeded in T cell medium including RPMI, 10% fetal calf serum, sodium pyruvate, L-Glutamine, and Penicillin/Streptomycin. Following an overnight incubation with medium, the cells were treated by incubating for 2 hours at 37° C. with amino-phenyl-acetic acid octadec-(Z)-9-enyl ester at a concentration of 10 micrograms/ml in a final volume of 10 ml in T-cell medium with or without 0.05% ethanol. After incubation, half the cells from each treatment were centrifuged and 2 ml of Tri-reagent (Sigma) were added to the pellet. The other half of the cells from each treatment were transferred to anti-CD3 antibody coated 24 well plates for an overnight incubation at 37° C. Coating plates with an anti-CD3 antibody was carried out by incubating with 2 micrograms/ml of OKT3 anti-CD3 antibody overnight at 4° C., washing three times with PBS and blocking with filtered 1% Bovine Serum Albumin for 1 hour. After activation with anti-CD3 antibody, cells were centrifuged and 2 ml of Tri-reagent were added to the pellet.
RNA was extracted from unstimulated cells and from cells activated with anti-CD3 according to standard protocols and used for hybridization with a Human Genome U133A 2.0 (Affymetrix, Catalogue number 900468), according to the manufacturer's instructions. The results of the hybridization were read by a GeneChip scanner 3000 (Affymetrix) and analyzed by QuantArray (GSI lumonics).
The effects of amino-phenyl-acetic acid octadec-(Z)-9-enyl ester in ethanol solution or in an aqueous vehicle (hereinafter termed “in PBS”) on gene expression in unstimulated T cells and T cells activated by anti-CD3 antibody were compared by microarray analysis.

[1] = in ethanol solution vs untreated

CCCCCCCC/C=C\CCCCCCCCOC(=O)C(N)c1ccccc1 (stereo not shown) [amino-phenyl-acetic acid octadec-(Z)-9-enyl ester]
Fold change IL1B (39402_at, in ethanol solution vs untreated): 2.03 | Fold change THBS1 (201109_s_at, in ethanol solution vs untreated): 1.94 | Fold Change EIF5A (201123_s_at, in ethanol solution vs in PBS): −1.97 | Fold change COL6A3 (in ethanol solution vs in PBS): −2.16 | Fold change COL6A3 [1]: −2.06 | Fold change BNIP3 (201848_s_at, in ethanol solution vs in PBS): −3.39 | Fold change BNIP3 (201848_s_at, in ethanol solution vs untreated): −2.99 | Fold change BNIP3 (201849_at, in ethanol solution vs in PBS): −3.34 | Fold change BNIP3 (201849_at, in ethanol solution vs untreated): −3.24 | Fold change CTSL (in ethanol solution vs in PBS): 2.18 | Fold change CTSL [1]: 2.30 | Fold change IGF2 /// INS-IGF2 (in ethanol solution vs in PBS): −2.42 | Fold change IGF2 /// INS-IGF2 [1]: −2.17 | Fold change CYP1B1 (202436_s_at, in ethanol solution vs untreated): 2.02 | Fold change IGFBP2 (in ethanol solution vs in PBS): −6.02 | Fold change IGFBP2 [1]: −5.13 | Fold change SERPINA1 (in ethanol solution vs in PBS): 1.97 | Fold change SERPINA1 [1]: 2.12 | Fold change S100A8 (in ethanol solution vs in PBS): 2.11 | Fold change S100A8 [1]: 2.24 | Fold Change GBE1 (203282_at, in ethanol solution vs in PBS): −1.92 | Fold change LMAN1 (203294_s_at, in PBS vs untreated): 1.91 | Fold Change ABCA1 (203504_s_at, in ethanol solution vs in PBS): −1.90 | Fold change MET (in ethanol solution vs in PBS): 2.76 | Fold change MET [1]: 2.35 | Fold change DFNA5 (203695_s_at, in ethanol solution vs untreated): 1.92 | Fold change MMP9 (in ethanol solution vs in PBS): 2.67 | Fold change MMP9 [1]: 2.74 | Fold Change CA12 (203963_at, in ethanol solution vs in PBS): 2.02 | Fold Change CA12 (203963_at, in ethanol solution vs untreated): 1.91 | Fold Change CDC6 (203967_at, in ethanol solution vs in PBS): −2.03 | Fold change FCER1G (204232_at, in ethanol solution vs untreated): 1.94 | Fold change LOC645619 /// LOC731007 (in ethanol solution vs in PBS): −2.52 | Fold change LOC645619 /// LOC731007 [1]: −2.25 | Fold change AK3L1 (in ethanol solution vs in PBS): −3.93 | Fold change AK3L1 [1]: −3.14 | Fold change MMP1 (204475_at, in ethanol solution vs untreated): 2.32 | Fold Change CA12 (204508_s_at, in ethanol solution vs in PBS): 2.09 | Fold change ABCG1 (204567_s_at, in ethanol solution vs untreated): −2.12 | Fold change SLC7A7 (in ethanol solution vs in PBS): 2.05 | Fold change SLC7A7 [1]: 2.07 | Fold change EXO1 (204603_at, in ethanol solution vs untreated): −2.25 | Fold change SERPINB2 (in ethanol solution vs in PBS): 2.60 | Fold change SERPINB2 [1]: 3.14 | Fold change TTK (in ethanol solution vs in PBS): −2.04 | Fold change TTK [1]: −2.40 | Fold change DOCK4 (205003_at, in ethanol solution vs untreated): 2.33 | Fold change RAD51 (205024_s_at, in ethanol solution vs untreated): −2.09 | Fold change IL1B (205067_at, in ethanol solution vs untreated): 2.03 | Fold change GNG4 (in ethanol solution vs in PBS): 2.04 | Fold change GNG4 [1]: 2.23 | Fold change IL6 (205207_at, in ethanol solution vs untreated): 1.95 | Fold change probeset 205296_at (205296_at, in ethanol solution vs untreated): −2.02 | Fold Change WDR76 (205519_at, in ethanol solution vs in PBS): −2.42 | Fold change AQP9 (205568_at, in ethanol solution vs untreated): 2.27 | Fold change ZC3H11A (205787_x_at, in PBS vs untreated): 1.95 | Fold change MT3 (205970_at, in ethanol solution vs untreated): −2.05 | Fold change TNFAIP6 (206025_s_at, in ethanol solution vs untreated): 1.92 | Fold change SFRS6 (206108_s_at, in PBS vs untreated): 2.16 | Fold change ADAMDEC1 (in ethanol solution vs in PBS): 2.41 | Fold change ADAMDEC1 [1]: 2.87 | Fold change PLA2G7 (in ethanol solution vs in PBS): 2.12 | Fold change PLA2G7 [1]: 3.44 | Fold change SERPINB7 (206421_s_at, in ethanol solution vs untreated): 1.99 | Fold change IL24 (206569_at, in ethanol solution vs untreated): 1.97 | Fold change CSF3 (207442_at, in ethanol solution vs untreated): 2.14 | Fold Change P4HA1 (207543_s_at, in ethanol solution vs in PBS): −2.20 | Fold change HCK (in ethanol solution vs in PBS): 1.93 | Fold change HCK [1]: 2.14 | Fold change CASP2 (208050_s_at, in PBS vs untreated): 2.04
